Measurements taken from publication PMC9330922, “Genomewide Analysis and Biological Characterization of Cathelicidins with Potent Antimicrobial Activity and Low Cytotoxicity from Three Bat Species” (Antibiotics, 2022).
Structures can show the parent of a compound that is named as a salt. Where two headings read alike, the source gives them in different places. No end group written: not given here.

Tests used:
Assay type in all cases: cell-based
[1] = system: Acinetobacter baumannii KCTC 23254; assay: microbe, parasite or virus in culture; details: MHB; for MIC: Acinetobacter baumannii, KCTC23254, value in brackets, WST colorimetric, 37 °C 6 h + 2 h, triplicate, read-out: Minimum Inhibitory Concentration; for Minimum Inhibitory Concentration: Microbial Viability Assay Kit-WST, 1.5 × 10^5 CFU/well, 37 °C 6 h + 2 h coloring reagent, A450, triplicate
Protocol: (§1) The antibacterial activities of the chemically synthesized peptides were evaluated against a panel of bacteria consisting of 6 Gram-negative strains, including E. coli ATCC 25922 (American Type Culture Collection, Manassas, VA, USA), P. aeruginosa ATCC 27853, S. Typhimurium ATCC 14028, A. baumannii KCTC (Korean Collection for Type Cultures, Jeongeup, Korea) 23254, K. pneumoniae KCTC 1726, and E. cloacae ATCC 13047, and 6 Gram-positive strains, including S. aureus ATCC 6538, B. cereus ATCC 10876, E. faecalis ATCC 29212, S. agalactiae ATCC 27956, S. dysgalactiae ATCC 27957, and S. equi ATCC 43079. Ampicillin (Sigma-Aldrich, St. Louis, MO, USA), chloramphenicol (Sigma-Aldrich), and gentamicin sulfate (Sigma-Aldrich) were used as controls for antibacterial activity. The MIC was determined by a colorimetric method using the Microbial Viability Assay Kit-WST (Dojindo, Kumamoto, Japan) according to the manufacturer’s manual and the Clinical and Laboratory Standards Institute (CLSI) guidelines (2018). Four colonies of each bacterium were inoculated into 5 mL of Luria-Bertani (LB) broth medium (BD Bioscience, Franklin Lakes, NJ, USA) or brain heart infusion broth (BHIB; BD Bioscience) at 37 °C for 6 h with shaking at 220 rpm. E. faecalis and streptococci were cultured in BHIB because of their slow growth, whereas all other bacteria were cultured in LB medium. The cells were washed by sterile saline (0.9% NaCl) twice and adjusted in a single well of a 96-well plate at a cell density of 1.5 × 10^5 CFU/well in accordance with 0.5 McFarland standard. Subsequently, 180 µL/well of fresh Mueller-Hinton broth (MHB; BD Bioscience), except for E. faecalis and streptococci using BHIB was added to the plate using BHIB. Final concentrations of 1–40 µg/mL (0.3–19.3 μM) of each peptide and reference antibiotic were added to each well. The plates were then incubated at 37 °C for 6 h. Subsequently, 10 µL of the coloring reagent was added, and the mixture was incubated at 37 °C for 2 h. The absorbance of each well was measured at 450 nm using a microplate spectrophotometer (Bio-Rad, xMark spectrophotometer, Hercules, CA, USA). MIC values were determined when the difference in the absorbance values between treatments and blanks (media and coloring reagent only) was less than 0.05. Experiments were performed in triplicate.

[2] = system: Bacillus cereus ATCC 10876; assay: microbe, parasite or virus in culture; details: MHB; for MIC: Bacillus cereus, ATCC10876, value in brackets, WST colorimetric, 37 °C 6 h + 2 h, triplicate, read-out: Minimum Inhibitory Concentration; for Minimum Inhibitory Concentration: Microbial Viability Assay Kit-WST, 1.5 × 10^5 CFU/well, 37 °C 6 h + 2 h coloring reagent, A450, triplicate
Protocol: as §1

[3] = system: Enterobacter cloacae subsp. cloacae ATCC 13047; assay: microbe, parasite or virus in culture; details: MHB; for MIC: Enterobacter cloacae, ATCC13047, value in brackets, WST colorimetric, 37 °C 6 h + 2 h, triplicate, read-out: Minimum Inhibitory Concentration; for Minimum Inhibitory Concentration: Microbial Viability Assay Kit-WST, 1.5 × 10^5 CFU/well, 37 °C 6 h + 2 h coloring reagent, A450, triplicate
Protocol: as §1

[4] = system: Enterococcus faecalis ATCC 29212; assay: microbe, parasite or virus in culture; details: BHIB; for MIC: Enterococcus faecalis, ATCC29212, value in brackets, WST colorimetric, 37 °C 6 h + 2 h, triplicate, read-out: Minimum Inhibitory Concentration; for Minimum Inhibitory Concentration: Microbial Viability Assay Kit-WST, 1.5 × 10^5 CFU/well, 37 °C 6 h + 2 h coloring reagent, A450, triplicate
Protocol: as §1

[5] = system: Escherichia coli ATCC 25922; assay: microbe, parasite or virus in culture; details: MHB; for MIC: Escherichia coli, ATCC25922, 8 h, value in brackets, WST colorimetric, 37 °C 6 h + 2 h, triplicate, read-out: Minimum Inhibitory Concentration; for Minimum Inhibitory Concentration: Microbial Viability Assay Kit-WST, 1.5 × 10^5 CFU/well, 37 °C 6 h + 2 h coloring reagent, A450, triplicate
Protocol: as §1

[6] = system: Klebsiella pneumoniae subsp. pneumoniae KCTC 1726; assay: microbe, parasite or virus in culture; details: MHB; for MIC: Klebsiella pneumoniae, KCTC1726, read-out: Minimum Inhibitory Concentration
Protocol: as §1

[7] = system: Pseudomonas aeruginosa ATCC 27853; assay: microbe, parasite or virus in culture; details: MHB; for Minimum Inhibitory Concentration: Microbial Viability Assay Kit-WST, 1.5 × 10^5 CFU/well, 37 °C 6 h + 2 h coloring reagent, A450, triplicate; for MIC: Pseudomonas aeruginosa, ATCC27853, value in brackets, WST colorimetric, 37 °C 6 h + 2 h, triplicate, read-out: Minimum Inhibitory Concentration
Protocol: as §1

[8] = system: Salmonella enterica serovar Typhimurium ATCC 14028; assay: microbe, parasite or virus in culture; details: MHB; for Minimum Inhibitory Concentration: Microbial Viability Assay Kit-WST, 1.5 × 10^5 CFU/well, 37 °C 6 h + 2 h coloring reagent, A450, triplicate; for MIC: Salmonella enterica, value in brackets, WST colorimetric, 37 °C 6 h + 2 h, triplicate, read-out: Minimum Inhibitory Concentration
Protocol: as §1

[9] = system: Staphylococcus aureus ATCC 6538; assay: microbe, parasite or virus in culture; details: MHB; for Minimum Inhibitory Concentration: Microbial Viability Assay Kit-WST, 1.5 × 10^5 CFU/well, 37 °C 6 h + 2 h coloring reagent, A450, triplicate; for MIC: Staphylococcus aureus, ATCC6538, value in brackets, WST colorimetric, 37 °C 6 h + 2 h, triplicate, read-out: Minimum Inhibitory Concentration
Protocol: as §1

[10] = system: Streptococcus agalactiae ATCC 27956; assay: microbe, parasite or virus in culture; details: BHIB; for Minimum Inhibitory Concentration: Microbial Viability Assay Kit-WST, 1.5 × 10^5 CFU/well, 37 °C 6 h + 2 h coloring reagent, A450, triplicate; for MIC: Streptococcus agalactiae, ATCC27956, value in brackets, WST colorimetric, 37 °C 6 h + 2 h, triplicate, read-out: Minimum Inhibitory Concentration
Protocol: as §1

[11] = system: Streptococcus dysgalactiae ATCC 27957; assay: microbe, parasite or virus in culture; details: BHIB; for Minimum Inhibitory Concentration: Microbial Viability Assay Kit-WST, 1.5 × 10^5 CFU/well, 37 °C 6 h + 2 h coloring reagent, A450, triplicate; for MIC: Streptococcus dysgalactiae, ATCC27957, value in brackets, WST colorimetric, 37 °C 6 h + 2 h, triplicate, read-out: Minimum Inhibitory Concentration
Protocol: as §1

[12] = system: Streptococcus equi subsp. zooepidemicus ATCC 43079; assay: microbe, parasite or virus in culture; details: BHIB; for Minimum Inhibitory Concentration: Microbial Viability Assay Kit-WST, 1.5 × 10^5 CFU/well, 37 °C 6 h + 2 h coloring reagent, A450, triplicate; for MIC: Streptococcus equi, ATCC43079, value in brackets, WST colorimetric, 37 °C 6 h + 2 h, triplicate, read-out: Minimum Inhibitory Concentration
Protocol: as §1

[13] = system: panel of 12 reference bacteria, comprised of 6 Gram-negative strains and 6 Gram-positive strains; details: 6 h
Protocol: as §1

[14] = value in brackets, WST colorimetric, 37 °C 6 h + 2 h, triplicate
[15] = Microbial Viability Assay Kit-WST, 1.5 × 10^5 CFU/well, 37 °C 6 h + 2 h coloring reagent, A450, triplicate

Molecule: CC1(C)S[C@@H]2[C@H](NC(=O)[C@H](N)c3ccccc3)C(=O)N2[C@H]1C(=O)O [Ampicillin]
- MIC [1]: > 229 µM
- Minimum Inhibitory Concentration [1]: > 80 µg/mL
- MIC [2]: 229 µM
- Minimum Inhibitory Concentration [2]: 80 µg/mL
- MIC [3]: > 229 µM
- Minimum Inhibitory Concentration [3]: > 80 µg/mL
- MIC [4]: 28.6 µM
- Minimum Inhibitory Concentration [4]: 10 µg/mL
- MIC [5]: 14.3 µM
- Minimum Inhibitory Concentration [5]: 5 µg/mL
- MIC [6, 14]: > 229 µM
- Minimum Inhibitory Concentration [6, 15]: > 80 µg/mL
- Minimum Inhibitory Concentration [7]: > 640 µg/mL
- MIC [7]: > 1830 µM
- Minimum Inhibitory Concentration [8]: > 80 µg/mL
- MIC [8]: > 229 µM
- Minimum Inhibitory Concentration [9]: 2 µg/mL
- MIC [9]: 5.7 µM
- Minimum Inhibitory Concentration [10]: 4 µg/mL
- MIC [10]: 11.4 µM
- Minimum Inhibitory Concentration [11]: 2 µg/mL
- MIC [11]: 5.7 µM
- Minimum Inhibitory Concentration [12]: 2 µg/mL
- MIC [12]: 5.7 µM

Molecule: CNC(C)C1CCC(N)C(OC2C(N)CC(N)C(OC3OCC(C)(O)C(NC)C3O)C2O)O1 (centres unmarked) [Gentamicin, gentamicin sulfate]
- MIC [1]: 21 µM
- Minimum Inhibitory Concentration [1]: 10 µg/mL
- MIC [2]: 2.1 µM
- Minimum Inhibitory Concentration [2]: 1 µg/mL
- MIC [3]: 2.1 µM
- Minimum Inhibitory Concentration [3]: 1 µg/mL
- MIC [4]: 189 µM
- Minimum Inhibitory Concentration [4]: 90 µg/mL
- MIC [5]: 2.1 µM
- Minimum Inhibitory Concentration [5]: 1 µg/mL
- MIC [6, 15]: 19 µg/mL
- MIC [6, 14]: 39.8 µM
- Minimum Inhibitory Concentration [7]: 1 µg/mL
- MIC [7]: 2.1 µM
- Minimum Inhibitory Concentration [8]: 1 µg/mL
- MIC [8]: 2.1 µM
- Minimum Inhibitory Concentration [9]: 1 µg/mL
- MIC [9]: 2.1 µM
- Minimum Inhibitory Concentration [10]: 75 µg/mL
- MIC [10]: 158 µM
- Minimum Inhibitory Concentration [11]: 15 µg/mL
- MIC [11]: 31.5 µM
- Minimum Inhibitory Concentration [12]: 45 µg/mL
- MIC [12]: 94.5 µM

Molecule: O=C(N[C@H](CO)[C@H](O)c1ccc([N+](=O)[O-])cc1)C(Cl)Cl [chloramphenicol]
- MIC [1]: 118 µM
- Minimum Inhibitory Concentration [1]: 38 µg/mL
- MIC [2]: 31 µM
- Minimum Inhibitory Concentration [2]: 10 µg/mL
- MIC [3]: 15.5 µM
- Minimum Inhibitory Concentration [3]: 5 µg/mL
- MIC [4]: 31 µM
- Minimum Inhibitory Concentration [4]: 10 µg/mL
- MIC [5]: 9.3 µM
- Minimum Inhibitory Concentration [5]: 3 µg/mL
- MIC [6, 14]: > 248 µM
- Minimum Inhibitory Concentration [6, 15]: > 80 µg/mL
- Minimum Inhibitory Concentration [7]: 80 µg/mL
- MIC [7]: 248 µM
- Minimum Inhibitory Concentration [8]: 5 µg/mL
- MIC [8]: 15.5 µM
- Minimum Inhibitory Concentration [9]: 7.5 µg/mL
- MIC [9]: 23.2 µM
- Minimum Inhibitory Concentration [10]: 5 µg/mL
- MIC [10]: 15.5 µM
- Minimum Inhibitory Concentration [11]: 4 µg/mL
- MIC [11]: 12.4 µM
- Minimum Inhibitory Concentration [12]: 5 µg/mL
- MIC [12]: 15.5 µM

Molecule: GIFILKHRRPIGRGIEIT [ΔML-CATH]
- MIC (no observable antibacterial activity) [13]: > 13.7 µM

Molecule: IAGRIAGKLIGDAINRHRERNRQRR [ΔPD-CATH]
- MIC (no observable antibacterial activity) [13]: > 13.7 µM
